Key:
[1] = test system: M. tuberculosis H37Rv Rv1258c knockout (KO); assay: microbe, parasite or virus in culture; assay type: cell-based; conditions: Tables 1-4 and text; 7 days, 7H9 broth
M. tuberculosis H37Rv = assay: microbe, parasite or virus in culture; assay type: cell-based, Mycobacterium tuberculosis; conditions: Tables 1-4 and text; […]
Rv1258c efflux pump = conditions: for Efflux Ratio: H37Rv MIC / Rv1258c KO MIC
[2] = biological target: Purified 70S M. smegmatis bacterial ribosomes (Mycolicibacterium smegmatis, UniProt A0QSG6); assay: Ribosomal translation inhibition; assay type: biochemical; conditions: inhibits luciferase activity by 50%
Purified 70S M. smegmatis bacterial ribosomes, sequence (A0QSG6 whole entry): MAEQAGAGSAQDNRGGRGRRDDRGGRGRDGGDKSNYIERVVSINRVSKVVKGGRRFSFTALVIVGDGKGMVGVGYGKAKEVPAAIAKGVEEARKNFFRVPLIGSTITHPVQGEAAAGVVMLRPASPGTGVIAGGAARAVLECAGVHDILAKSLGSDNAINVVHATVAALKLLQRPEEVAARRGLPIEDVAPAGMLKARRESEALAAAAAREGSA

| Compound | Rv1258c KO MIC [1] [µg/mL] | H37Rv MIC (M. tuberculosis H37Rv) [µg/mL] | Fold change of MIC between H37Rv and Rv1258c KO (efflux) (Rv1258c efflux pump) [fold] | Efflux Ratio (Rv1258c efflux pump) | Ribosome IC50 [2] [µg/mL] |
| --- | --- | --- | --- | --- | --- |
| CNC1C(O)C(NC)C2OC3(O)C(NC(=O)Cc4cc5ccccc5[nH]4)CC(C)OC3OC2C1O [Compound 28, 3′-Dihydro-3′-deoxy-3′(R)-(1H-indol-2-yl)acetylamino spectinomycin] | 0.8 | 25 | 32 | 32 | 0.77 |
| Br.Br.Br.CNC1C(O)C(NC)C2OC3(O)C(NC(=O)Cc4cc(C)ccn4)CC(C)OC3OC2C1O [Compound 30, 3′-Dihydro-3′-deoxy-3′(R)-(4-methylpyridin-2-yl)acetylamino spectinomycin trihydrobromide] | 6.3 | 3.1 | – | 0.5 | 0.47 |
| Br.Br.Br.CNC1C(O)C(NC)C2OC3(O)C(NC(=O)CCc4ccccn4)CC(C)OC3OC2C1O [Compound 12, 3′-Dihydro-3′-deoxy-3′(R)-(pyridin-2-yl)propanoylamino spectinomycin trihydrobromide] | 6.3 | 50 | 8 | 8 | 3.80 |
| Br.Br.Br.CNC1C(O)C(NC)C2OC3(O)C(OC(C)C[C@H]3NC(=O)Cc3nc4ccccc4n3C)OC2C1O (stereo partly drawn) [Compound 26, 3′-Dihydro-3′-deoxy-3′(R)-(1-methyl-1H-benzo[d]imidazol-2-yl)acetylamino spectinomycin trihydrobroride] | 3.1 | 6.3 | – | 2 | 0.26 |
| CNC1C(O)C(NC)C2OC3(O)C(NC(=O)Nc4ccccn4)CC(C)OC3OC2C1O.Cl.Cl [Compound 10, 3′-Dihydro-3′-deoxy-3′(R)-(pyridin-2-yl)aminocarbonylamino spectinomycin dihydrochloride] | 3.1 | 12.5 | – | 4 | 2.24 |
| Br.Br.Br.CNC1C(O)C(NC)C2OC3(O)C(NC(=O)Cc4ccc(Br)cn4)CC(C)OC3OC2C1O [Compound 43, 3′-Dihydro-3′-deoxy-3′(R)-(5-bromopyridin-2-yl)acetylamino spectinomycin trihydrobromide] | 1.6 | 3.1 | – | 2 | 0.42 |
| Br.Br.Br.CNC1C(O)C(NC)C2OC3(O)C(NC(=O)Cc4c[nH]cn4)CC(C)OC3OC2C1O [Compound 20, 3′-Dihydro-3′-deoxy-3′(R)-(1H-imidazol-4-yl)acetylamino spectinomycin trihydrobromide] | 12.5 | 25 | – | 2 | 1.10 |
| Br.Br.CNC1C(O)C(NC)C2OC3(O)C(NS(=O)(=O)Cc4ccccc4)CC(C)OC3OC2C1O [Compound 9, 3′-Dihydro-3′-deoxy-3′(R)-benzylsulfonylamino spectinomycin dihydrobromide] | 12.5 | >200 | – | >16 | 10.97 |
| Br.Br.Br.CNC1C(O)C(NC)C2OC3(O)C(OC(C)C[C@H]3NC(=O)Cn3ccnc3)OC2C1O (stereo partly drawn) [Compound 23, 3′-Dihydro-3′-deoxy-3′(R)-(1H-imidazol-1-yl)acetylamino spectinomycin trihydrobromide] | 12.5 | 100 | 8 | 8 | 1.51 |
| Br.Br.Br.CNC1C(O)C(NC)C2OC3(O)C(OC(C)C[C@H]3NC(=O)Cc3cccc(C)n3)OC2C1O (stereo partly drawn) [Compound 32, 3′-Dihydro-3′-deoxy-3′(R)-(6-methylpyridin-2-yl)acetylamino spectinomycin trihydrobromide] | 6.3 | 25 | – | 4 | 0.50 |
| Br.Br.Br.CNC1C(O)C(NC)C2OC3(O)C(NC(=O)Cc4nc5ccccc5o4)CC(C)OC3OC2C1O [Compound 24, 3′-Dihydro-3′-deoxy-3′(R)-(benzo[d]oxazol-2-yl)acetylamino spectinomycin trihydrobroride] | 3.1 | 6.3 | – | 2 | 0.61 |
| CNC1C(O)C(NC)C2OC3(O)C(NC(=O)Cc4cc(O)ccn4)CC(C)OC3OC2C1O.Cl.Cl.Cl [Compound 35, 3′-Dihydro-3′-deoxy-3′(R)-(4-hydroxypyridin-2-yl)acetylamino spectinomycin trihydrochloride] | 12.5 | 25 | – | 2 | 0.44 |
| Br.Br.Br.CNC1C(O)C(NC)C2OC3(O)C(NC(=O)Cc4cc(OC)ccn4)CC(C)OC3OC2C1O [Compound 34, 3′-Dihydro-3′-deoxy-3′(R)-(4-methoxypyridin-2-yl)acetylamino spectinomycin trihydrobromide] | 3.1 | 12.5 | – | 4 | 0.39 |
| Br.Br.Br.CNC1C(O)C(NC)C2OC3(O)C(NC(=O)Cc4ncccc4C)CC(C)OC3OC2C1O [Compound 29, 3′-Dihydro-3′-deoxy-3′(R)-(3-methylpyridin-2-yl)acetylamino spectinomycin trihydrobromide] | 6.3 | 25 | – | 4 | 1.00 |
| Br.Br.Br.CNC1C(O)C(NC)C2OC3(O)C(NC(=O)Cn4cccn4)CC(C)OC3OC2C1O [Compound 22, 3′-Dihydro-3′-deoxy-3′(R)-(1H-pyrazol-1-yl)acetylamino spectinomycin trihydrobroride] | 6.3 | 6.3 | – | 1 | 0.42 |
